Experimental data taken from ChEMBL document CHEMBL3714730, “Diaminopyrimidines as P2X3 and P2X2/3 modulators” (2009).
Activity calls are given as the source filed them. The calls are words filed in the database; no cut-off is given here.

Experiments:
[1] = target: P2X2/P2X3 heterotrimeric receptor (Homo sapiens) (UniProt Q9UBL9+P56373); test: Antagonist activity against human P2X2/3 receptor expressed in CHOK1 cells assessed as inhibition of alpha,beta-meATP-induced calcium response incubated for 20 mins by Fluo-3AM dye based FLIPR assay; assay type: functional, cell-based; conditions: CHO-K1
[2] = target: T1, P2X purinoceptor 3 (Rattus norvegicus) (UniProt P49654); test: Antagonist activity against rat P2X3 receptor expressed in CHOK1 cells assessed as inhibition of alpha,beta-meATP-induced calcium response incubated for 20 mins by Fluo-3AM dye based FLIPR assay; assay type: functional, cell-based; conditions: CHO-K1
T1 sequence (whole entry): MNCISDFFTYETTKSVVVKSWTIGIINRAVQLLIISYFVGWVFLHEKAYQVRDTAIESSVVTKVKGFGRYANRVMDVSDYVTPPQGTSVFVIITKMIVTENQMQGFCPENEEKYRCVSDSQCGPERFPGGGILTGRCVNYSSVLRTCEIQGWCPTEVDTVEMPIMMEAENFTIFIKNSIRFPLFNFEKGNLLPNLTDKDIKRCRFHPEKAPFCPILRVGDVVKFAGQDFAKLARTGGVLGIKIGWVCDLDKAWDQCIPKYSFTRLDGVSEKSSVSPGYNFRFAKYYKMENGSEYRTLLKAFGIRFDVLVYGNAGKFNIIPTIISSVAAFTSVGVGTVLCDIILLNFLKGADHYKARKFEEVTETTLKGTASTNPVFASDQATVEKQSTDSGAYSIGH

SMILES	inhibition [1]	inhibition [2]
C#Cc1ccc(C(C)C)c(Oc2cnc(N)nc2N)c1	Active	Active
C#Cc1cc(Oc2cnc(N)nc2N)c(C(C)C)cc1OCc1cccc(F)c1	Active	Active
C#Cc1cc(Oc2cnc(NCCO)nc2N)c(C(C)C)cc1OC	Active	Active
C#Cc1cc(Oc2cnc(NCCN(C)C)nc2N)c(C(C)C)cc1OC	Active	Active
COc1cc(C(C)C)c(Oc2cnc(N)nc2N)cc1C#Cc1cncn1C	Active	Active
COc1cc(C(C)C)c(Oc2cnc(N)nc2N)cc1C#Cc1ccccn1	Active	Active
C#Cc1cc(Oc2cnc(NCCN3CCOCC3)nc2N)c(C(C)C)cc1OC	Active	Active
COc1cc(C(C)C)c(Oc2cnc(N)nc2N)cc1C#Cc1ccccc1	Active	Active
COc1cc(C(C)C)c(Oc2cnc(N)nc2N)cc1C#Cc1cccnc1	Active	Active
C#Cc1cc(Oc2cnc(NC(C)CO)nc2N)c(C(C)C)cc1OC (configuration not stated)	Active	Active
C#Cc1ccc(I)c(Oc2cnc(N)nc2N)c1	Active	Active
C#Cc1cc(Oc2cnc(NC(CO)CO)nc2N)c(C(C)C)cc1OC	Active	Active
C#Cc1cc(Oc2cnc(NCCN3CCCCC3)nc2N)c(C(C)C)cc1OC	Active	Active
C#Cc1cc(Oc2cnc(NC3CCOCC3)nc2N)c(C(C)C)cc1OC	Active	Active
C#Cc1cc(Oc2cnc(NCCCO)nc2N)c(C(C)C)cc1OC	Active	Active
CC#Cc1cc(Oc2cnc(N)nc2N)c(C(C)C)cc1F	Active	Active
C#Cc1cc(Oc2cnc(NCC(C)O)nc2N)c(C(C)C)cc1OC (configuration not stated)	Active	Active
COc1cc(C(C)C)c(Oc2cnc(N)nc2N)cc1C#Cc1ccsc1	Active	Active
COc1cc(C(C)C)c(Oc2cnc(N)nc2N)cc1C#Cc1ccncc1	Active	Active
C#Cc1cc(Oc2cnc(NC3CCN(S(C)(=O)=O)CC3)nc2N)c(C(C)C)cc1OC	Active	Active

More lines, now with the values ahead:

inhibition [1]	inhibition [2]	SMILES
Active	Active	C#Cc1cc(Oc2cnc(N)nc2N)c(CC)cc1OC
Active	Active	COc1cc(C(C)C)c(Oc2cnc(N)nc2N)cc1C#CCCCO
Active	Active	COc1cc(C(C)C)c(Oc2cnc(N)nc2N)cc1C#CCO
Active	Active	CC#Cc1cc(Oc2cnc(N)nc2N)c(C(C)C)cc1OC
Active	Active	CNCC#Cc1cc(Oc2cnc(N)nc2N)c(C(C)C)cc1OC
Active	Active	C#Cc1cc(Oc2cnc(N)nc2N)c(C(C)C)cc1OCCO
Active	Active	C#Cc1cc(Oc2cnc(N)nc2N)c(C(C)C)cc1Cl
Active	Active	C#Cc1cc(Oc2cnc(N)nc2N)c(C(C)C)cc1F
Active	Active	C#Cc1cc(OC)c(I)cc1Oc1cnc(N)nc1N
Active	Active	C#Cc1cc(OC)c(C(C)C)c(Oc2cnc(N)nc2N)c1
Active	Active	COc1cc(C(C)C)c(Oc2cnc(N)nc2N)cc1C#CC1CC1
Active	Active	C#Cc1cc(Oc2cnc(N)nc2N)c(C#C)cc1OC
Active	Active	COCC#Cc1cc(Oc2cnc(N)nc2N)c(C(C)C)cc1OC
Active	Active	COc1cc(C(C)C)c(Oc2cnc(N)nc2N)cc1C#CCCO
Active	Active	C#Cc1cc(Cc2cnc(N)nc2N)c(C(C)C)cc1OC
Active	Active	COc1cc(C(C)C)c(Oc2cnc(N)nc2N)cc1C#C[Si](C)(C)C
Active	Active	CCCC#Cc1cc(Oc2cnc(N)nc2N)c(C(C)C)cc1OC
Active	Active	COc1cc(I)cc(Oc2cnc(N)nc2N)c1C(C)C
Active	Active	COc1cc(C(C)C)c(Oc2cnc(N)nc2N)cc1C#CCCC#N
Active	Active	C#Cc1ccc(C#C)c(Oc2cnc(N)nc2N)c1
Active	Active	C#Cc1cc(Oc2cnc(N)nc2N)c(C(C)C)cc1OC
